The values below come from article PMC12373846, “Hemoglobin as a pseudoperoxidase and drug target for oxidative stress-related diseases” (Signal Transduction and Targeted Therapy, 2025).

In one data set the target is T1, Hb (Homo sapiens, UniProt P68871).
T1 construct: purchased Sigma-Aldrich H7379
Nature of the data set: ROS-Glo H2O2 assay with Hb. The format is biochemical. The procedure: Hb (Sigma‒Aldrich, H7379), H2O2 (Sigma‒Aldrich, H1009), and Amplex Red reagents (Invitrogen, A12222) were obtained for the study. A 4 μM H2O2 solution was prepared in 50 mM sodium phosphate buffer (pH 7.2). Then, 49 μl of this mixture was mixed with 1 μl of the test compound in DMSO or distilled water. The mixture was combined with an assay mixture of Amplex Red reagent (20 mM stock to 0.1 mM) and HRP (200 U/ml stock to 0.2 U/ml) and added to the wells at 50 μl/well. After a 60-min incubation at 37 °C, resorufin production was quantified via a microplate fluorescence reader (SpectraMax iD5, Molecular Devices) at ex/em = 535/580 nm. […] For the ROS-Glo assay, the H2O2 substrate solution and ROS-Glo detection solution were prepared according to the manufacturer’s instructions. 10 μM H2O2 and drugs were prepared as in the Amplex Red assay, with HRP, Hb, CAT, or GPx added as needed. The mixture was added to the wells at 100 μl/well and incubated for 60 min at 37 °C. H2O2 substrate solution was added, and the mixture was incubated at room temperature for 30 min. After the H2O2 substrate solution was added and incubated at room temperature for 30 min, the ROS-Glo detection solution was added, and the mixture was incubated for 15 min. Luminescence was measured via iD5 microplate readers. […] The U/ml was calculated on the basis of the amount of H2O2 reduced by Hb during the reaction, using μg/ml and U/mg.
To evaluate the extent of peroxidase function facilitation by HTPEB (1 μM) and KDS12025 (1 μM) in HRP (0.2 U/ml) and Hb (10 μg/ml), we used the ROS-Glo assay over 30 and 60 min. The fold change was calculated by dividing the delta values during the 30-min reaction for the vehicle over drug conditions.
To assess enzyme activity, the amount of H2O2 consumed over a specific time was quantified alongside a standard curve. For the peroxidase function of Hb, Hb was administered at doses ranging from 0.01 to 112 U/ml and preincubated with H2O2 and either DMSO, HTPEB (1 μM), or KDS12025 (1 μM) at 37 °C for 30 min. The remaining H2O2 was measured via the ROS-Glo assay and normalized against conditions without Hb. The dose‒response curve, EC50, and EC20 for H2O2 decomposition were calculated and determined by fitting the data with GraphPad Prism software. The fitting method had no special handling of outliers, and least squares regression with confidence intervals of the parameters was 95%.

A further data set has as its target T2, HRP (Armoracia rusticana, UniProt P00433).
T2 sequence (P00433 31-353): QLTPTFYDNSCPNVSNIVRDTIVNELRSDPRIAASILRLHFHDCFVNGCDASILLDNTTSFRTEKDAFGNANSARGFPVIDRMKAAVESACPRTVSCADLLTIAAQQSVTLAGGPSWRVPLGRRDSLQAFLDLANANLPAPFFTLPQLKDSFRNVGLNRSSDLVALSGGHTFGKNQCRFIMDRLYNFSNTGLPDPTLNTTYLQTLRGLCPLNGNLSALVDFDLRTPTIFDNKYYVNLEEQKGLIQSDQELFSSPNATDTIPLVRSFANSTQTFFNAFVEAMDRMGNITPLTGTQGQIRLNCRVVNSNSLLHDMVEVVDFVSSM
Kind of data set: H2O2 assay with HRP (HRP-EC50). The class given is biochemical, horseradish. The procedure: Hb (Sigma‒Aldrich, H7379), H2O2 (Sigma‒Aldrich, H1009), and Amplex Red reagents (Invitrogen, A12222) were obtained for the study. A 4 μM H2O2 solution was prepared in 50 mM sodium phosphate buffer (pH 7.2). Then, 49 μl of this mixture was mixed with 1 μl of the test compound in DMSO or distilled water. The mixture was combined with an assay mixture of Amplex Red reagent (20 mM stock to 0.1 mM) and HRP (200 U/ml stock to 0.2 U/ml) and added to the wells at 50 μl/well. After a 60-min incubation at 37 °C, resorufin production was quantified via a microplate fluorescence reader (SpectraMax iD5, Molecular Devices) at ex/em = 535/580 nm. The H2O2-decomposing activity was estimated via the following equation: (sample fluorescence-blank fluorescence)/(control […]-blank fluorescence) × 100. For the ROS-Glo assay, the H2O2 substrate solution and ROS-Glo detection solution were prepared according to the manufacturer’s instructions. 10 μM H2O2 and drugs were prepared as in the Amplex Red assay, with HRP, Hb, CAT, or GPx added as needed. The mixture was added to the wells at 100 μl/well and incubated for 60 min at 37 °C. H2O2 substrate solution was added, and the mixture was incubated at room temperature for 30 min. After the H2O2 substrate solution was added and incubated at room temperature for 30 min, the ROS-Glo detection solution was added, and the mixture was incubated for 15 min. Luminescence was measured via iD5 microplate readers. The H2O2-decomposing activity was estimated via the following equation: (sample luminescence-blank luminescence)/(control luminescence-blank luminescence) × 100. The U/ml was calculated on the basis of the amount of H2O2 reduced by Hb during the reaction, using μg/ml and U/mg.

In data set [1] the test system is primary cultured hippocampal astrocytes. Nature of the data set: oROS-G intracellular H2O2 imaging. The class given is cell-based, mouse. The following applies: Fig. 3j. The procedure:
Primary hippocampal astrocytes were obtained from postnatal day 0‒2 (P0‒2) C57BL/6 mice as previously described.[73] The hippocampal tissue was dissected free of meninges, minced, and dissociated into a single-cell suspension by trituration. The cells were grown in Dulbecco’s modified Eagle’s medium supplemented with D-glucose (4500 mg/L), L-glutamine, sodium pyruvate (110 mg/L), 10% heat-inactivated horse serum, 10% heat-inactivated fetal bovine serum, and 1000 U/ml penicillin‒streptomycin. The cells were maintained at 37 °C in a humidified atmosphere containing 5% CO2.
H2O2 specific, highly sensitive, and fast on-and-off kinetics, a genetically encoded oROS-G plasmid kindly provided by Dr. Andre Berndt. oROS-G was cloned under the GFAP104 promoter and delivered into primary cultured hippocampal astrocytes via the NeoN^TM transfection system (Invitrogen). The cells were treated with various concentrations of Aβ (1 to 10 μM) or 6-OHDA (Tocris, 2547; 10 to 50 μM) to induce aberrant H2O2. For subsequent experiments, 5 μM Aβ and 30 μM 6-OHDA were selected on the basis of initial dose‒response studies. KDS12025 (10 μM) and sodium pyruvate (1 mM) were applied as indicated in each experiment. For live-cell imaging, astrocytes were maintained in a humidified chamber at 37 °C with 5% […] during imaging to preserve physiological conditions. Changes in the fluorescence of oROS-G were recorded via an A1 Nikon confocal microscope equipped with a temperature- and humidity-controlled stage. Images were captured every 20 min for up to 40 h (20for the 6-OHDA experiments) via the NIS-Elements software (Nikon, Japan) for time-lapse imaging. The excitation and emission wavelengths for oROS-G fluorescence were set to 485 nm and 538 nm, respectively. Endpoint fluorescence measurements were also collected for KDS12025 dose-dependent experiments. To analyze the fluorescence intensity, individual regions of interest (ROIs) were manually selected for each astrocyte via NIS-Elements software (Nikon, Japan). The fluorescence intensity changes were normalized to the baseline values (ΔF/F0) to quantify the H2O2 dynamics. To determine the EC50 of KDS12025, endpoint fluorescence intensity data from oROS-G experiments were normalized to those of the Aβ+vehicle control group. The normalized data were analyzed via GraphPad Prism software to fit a four-parameter logistic curve, yielding the EC50 value for the H2O2-decomposing activity of KDS12025.

The next data set is described as follows: PAMPA BBB permeability. The following applies: for BCS code: CNS +/- classification: 50 μM, 4 h; for Papp at 4 h, 50 μM: PAMPA, pH 7.4, 50 μM. The class given is in vitro ADME. The procedure: A parallel artificial membrane permeability assay (PAMPA)^70 was performed to validate the blood-brain barrier permeability of KDS12025. The procedure began by preparing a donor solution of the compound in a pH 7.4 donor buffer. This solution was added to the wells of a deep well plate, followed by the addition of a high-sensitivity UV plate filled with donor buffer to serve as the blank sample. An initial sample for the UV plate was taken to establish a baseline reading. The PAMPA sandwich was then assembled by adding the donor plate mixture to the donor plate well, followed by placing a BBB-lipid coated membrane on top and an acceptor plate filled with acceptor buffer. This setup was incubated at 25 °C for a specific duration to allow diffusion. Post-incubation, a sample from the acceptor plate was taken, and the UV absorbance was measured to determine the permeated amount of the test compound. The permeability was then calculated using the PAMPA explorer program, considering the initial donor concentration and the acceptor's concentration after incubation.

Where [2] appears, read: Tables S2, S3, read-out: HRP-EC50.
Where [3] appears, read: Tables S2, S3, read-out: HB-EC50.
The mark [4] stands for this setting: read-out: BCS code: permeability classification.

Where a name gives a salt, the structure may show the parent alone. Read-outs that look alike come from different tables or passages of the source.

T1 sequence (P68871 2-147 limits assumed): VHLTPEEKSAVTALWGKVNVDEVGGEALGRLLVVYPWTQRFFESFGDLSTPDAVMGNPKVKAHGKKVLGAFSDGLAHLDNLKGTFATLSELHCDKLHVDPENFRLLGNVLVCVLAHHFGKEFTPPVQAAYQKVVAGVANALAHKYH
T1 sequence (P69905 2-142 partner limits assumed): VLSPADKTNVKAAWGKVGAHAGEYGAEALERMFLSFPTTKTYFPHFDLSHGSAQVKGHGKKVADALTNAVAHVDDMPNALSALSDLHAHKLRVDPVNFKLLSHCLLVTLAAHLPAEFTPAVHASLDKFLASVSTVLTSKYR

On to `NCCc1ccc(C(F)(F)F)cc1` [2-(4-(Trifluoromethyl)phenyl)ethylamine, reference compound], for which the EC50 at Hb and on HRP was over 10000 nM each time.
Turning to `NCCc1cc(O)c(O)cc1O` [6-OHDA, 6-hydroxydopamine, reference compound], the “oROS-G H2O2 level” value stood at 153.8±24.7 in data set [1] (6-OHDA 10μM), 211.9±18.2 in data set [1] (6-OHDA 30μM) and 271.2±14.8 in data set [1] (6-OHDA 50μM).
On to `FC(F)(F)c1ccc(CCNc2ccccc2)cc1` [7b, N-(4-(trifluoromethyl)phenethyl)aniline], for which the EC50 (usually the concentration needed to bring the measured effect to its halfway point) on HRP (setting [2]) was over 10000 nM.
For the compound `Oc1ccc(NCCc2ccc(C(F)(F)F)cc2)cc1` [7c, 4-((4-(trifluoromethyl)phenethyl)amino)phenol], the EC50 was 5090 nM at Hb (setting [3]) and over 10000 nM at HRP (setting [2]).
In the case of `COc1ccc(NCCc2ccc(C(F)(F)F)cc2)cc1` [7d, 4-methoxy-N-(4-(trifluoromethyl)phenethyl)aniline], the EC50 is 23400 nM on Hb (setting [3]) and 13300 nM on HRP (setting [2]).
For the compound `O=C(O)c1cccc(NCCc2ccc(C(F)(F)F)cc2)c1` [7e, 3-((4-(trifluoromethyl)phenethyl)amino)benzoic acid], the concentration for a half-maximal effect (EC50) at Hb (setting [3]) and at HRP (setting [2]) was over 10000 nM in each case.
Consider `O=C(O)c1ccc(NCCc2ccc(C(F)(F)F)cc2)cc1` [7f, 4-((4-(trifluoromethyl)phenethyl)amino)benzoic acid], for which the concentration giving a half-maximal response (EC50) was over 10000 nM on Hb (setting [3]) and 22100 nM at HRP (setting [2]).
The like results for `CNc1ccc(NCCc2cccc(OC)c2)cc1` [8d, N^1-(3-methoxyphenethyl)-N^4-methylbenzene-1,4-diamine hydrochloride salt] were, in that order, 85.5 nM and 516 nM.
Turning to `CNc1ccc(NCCc2ccc(OC)cc2)cc1` [8e, N^1-(4-methoxyphenethyl)-N^4-methylbenzene-1,4-diamine], the half-maximal effective concentration (EC50) at Hb (setting [3]) is 69.5 nM; at HRP (setting [2]), 790 nM.
The like results for `CNc1ccc(NCCc2ccccc2)cc1` [8f, N^1-methyl-N^4-phenethylbenzene-1,4-diamine hydrochloride salt] were, in that order, 78.1 nM and 897 nM.
Take `CNc1ccc(NCCc2cccc(C(F)(F)F)c2)cc1` [8g, N^1-methyl-N^4-(3-(trifluoromethyl)phenethyl)benzene-1,4-diamine hydrochloride salt]: the EC50 on Hb (setting [3]) stood at 88.4 nM; on HRP (setting [2]) it was 378 nM.
`CNc1ccc(NCCc2ccccc2C(F)(F)F)cc1` [8h, N^1-methyl-N^4-(2-(trifluoromethyl)phenethyl)benzene-1,4-diamine hydrochloride salt]: the figures for the EC50 at Hb (setting [3]) and on HRP (setting [2]) were 69.1 nM and 500 nM, respectively.
The like results for `Nc1ccc(O)c(C(=O)O)c1` [Mesalazine, reference compound] were, in that order, 213 nM and 3600 nM.
Regarding `CC(=O)[C@H]1CC[C@H]2[C@@H]3CCC4=CC(=O)CC[C@]4(C)[C@H]3CC[C@]12C` [Progesterone], in the data set “PAMPA BBB permeability”, the “BCS code: CNS +/- classification” value is recorded as “+ (> 10)”. Besides, the Papp at 4 h, 50 μM in “PAMPA BBB permeability” (U.V, read-out: Pe (PAMPA BBB permeability)) was 42.2 ×10⁻⁶ cm/s; in the data set “PAMPA BBB permeability” (setting [4]), over 0.4 ×10⁻⁶ cm/s.
For `CNC(=C[N+](=O)[O-])NCCSCc1ccc(CN(C)C)o1` [Ranitidine], the “BCS code: CNS +/- classification” value in the data set “PAMPA BBB permeability” is “- (< 10)”. In the data set “PAMPA BBB permeability” (setting [4]), the Papp at 4 h, 50 μM was under 0.4 ×10⁻⁶ cm/s.
As to `O=C(O)c1ccccc1O` [Salicylic Acid, reference compound], the half-maximal effective concentration (EC50) on Hb (setting [3]) and at HRP (setting [2]) was over 10000 nM each time.
Regarding `Cc1ccc(O)c(C(=O)O)c1` [p-Cresotic acid, reference compound], the EC50 on Hb (setting [3]) and on HRP (setting [2]) was over 10000 nM throughout.
